Test results taken from article PMC12169614, “Exploring Long Arm Amide-Linked Side Chains in the Design of Antifungal Azole Inhibitors of Sterol 14α-Demethylase (CYP51)” (Journal of Medicinal Chemistry, 2025).

Experiments:
Y2301 OE ScCYP51 Y140F = test: MIC80 determination, strain Y2301; type: cell-based, S. cerevisiae; settings: Saccharomyces cerevisiae
How it was run: (§1)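 Inoculum OD600 0.005 (1.5 × 10^4 CFU); 30 °C, 200 rpm; 48 h S. cerevisiae, 24 h C. albicans; OD600 read-out; MIC80 from triplicates, 4-clone pools, 3 independent expts.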

Y2513 OE ScCYP51 Y140H = test: MIC80 determination, strain Y2513; type: cell-based, S. cerevisiae; settings: Saccharomyces cerevisiae
How it was run: as §1

Y2459 OE CaCYP51 CaCpr = test: MIC80 determination, strain Y2459; type: cell-based, S. cerevisiae
How it was run: as §1

Y525 OE CaMDR1a = test: MIC80 determination, strain Y525; type: cell-based, S. cerevisiae
How it was run: as §1

Y570 OE CaCDR1B = test: MIC80 determination, strain Y570; type: cell-based, S. cerevisiae
How it was run: as §1

Y1 = test: MIC80 determination, C. albicans clinical isolate Y1; type: cell-based; settings: Candida albicans, pH 7, 24 h
How it was run: as §1

Y611 FHB3 = test: MIC80 determination, C. albicans clinical isolate Y611 FHB3; type: cell-based; settings: Candida albicans, 24 h, pH 7
How it was run: as §1

Y2721 OE CpCYP51 = test: MIC80 determination, strain Y2721; type: cell-based, S. cerevisiae
How it was run: as §1

Y433 OE CgCDR1 = test: MIC80 determination, strain Y433; type: cell-based, S. cerevisiae; settings: Saccharomyces cerevisiae
How it was run: as §1

Y2767 OE CauCYP51 = test: MIC80 determination, strain Y2767; type: cell-based, S. cerevisiae
Description: (§2) Cells were seeded at an OD600 nm of 0.005 (1.5 × 10^4 CFU), and the plates were incubated at 30 °C with shaking at 200 rpm for 48 h for S. cerevisiae strains and 24 h for C. albicans . Cell growth was assessed by measuring the OD600 nm using a Synergy 2 multimode plate reader (BioTek Instruments, VT, USA). Each MIC80 was determined using triplicate measurements for pools of 4 clones of each strain in three separate experiments.

Y2768 OE CauCYP51 Y132F = test: MIC80 determination, strain Y2768; type: cell-based, S. cerevisiae
Description: as §2

2711 CnCYP51 OE CnCPR = test: MIC80 determination, strain 2711; type: cell-based, S. cerevisiae
How it was run: as §1

Y2651 OE CYP51 F5 RaCPR = test: MIC80 determination, strain Y2651; type: cell-based, S. cerevisiae; settings: Saccharomyces cerevisiae
How it was run: as §1

[1] = tested on: Y2747 OE AfCYP51B AfCPR AfERG6; test: MIC80 determination, strain Y2747; type: cell-based, S. cerevisiae
How it was run: as §1

[2] = tested on: Y2411 azole sensitive control strain; test: Agarose (disk) diffusion assay, strain Y2411; type: cell-based, S. cerevisiae; settings: 10 nmol/disk, 30 °C, 48 h
Source text: (§3) Final compounds were screened as racemic mixtures using agarose diffusion assays to visualize their inhibitory activity against a panel of recombinant S. cerevisiae strains i.e., S. cerevisiae strains expressing control levels of wild-type CYP51 (ScCYP51), overexpressed wild-type ScCYP51, overexpressed azole-resistant ScCYP51 Y140F/H mutations and overexpressed C. albicans efflux pumps MDR1a or CDR1B (Figure and Table S1).
(§4) The susceptibilities of S. cerevisiae and Candida species strains to azole compounds were observed as zones of growth inhibition in agarose diffusion assays. The disk diffusion assays were carried out as described by Keniya et al. Complete supplement mixture (CSM) agarose (0.6% agarose [wt/vol]; 20 mL of synthetic defined medium (SD); pH 6.8–7) was solidified in a rectangular Petri dish which was overlaid with CSM agarose (0.6% [wt/vol]; 5 mL; pH 6.8–7) seeded with yeast cells at an optical density (OD600) of 0.008 (118,000 cells per 1 mL of overlay). Azole compounds (10 nmol/disk) were applied to sterile BBL paper disks (Becton Dickinson Co., Sparks, MD) and placed on solidified overlays. Cell growth was assessed after incubation at 30 °C for 48 h.

[3] = tested on: Y2513 ScCYP51 Y140H mutant; test: Agarose (disk) diffusion assay, strain Y2513; type: cell-based, S. cerevisiae; settings: 10 nmol/disk, 30 °C, 48 h
Source text: as §3, §4

[4] = tested on: Y570 ABC efflux pump CaCDR1B overexpressed; test: Agarose (disk) diffusion assay, strain Y570; type: cell-based, S. cerevisiae; settings: 10 nmol/disk, 30 °C, 48 h
Source text: as §3, §4

wild-type CaCYP51 = wild-type CaCYP51 (Candida albicans, UniProt P10613); test: Reconstituted CYP51 activity assay, wild type; type: biochemical, C. albicans; settings: 1 μM CaCyp51, 50 μM lanosterol; duplicate, mean ± SD
Chain of wild-type CaCYP51 (P10613 whole entry): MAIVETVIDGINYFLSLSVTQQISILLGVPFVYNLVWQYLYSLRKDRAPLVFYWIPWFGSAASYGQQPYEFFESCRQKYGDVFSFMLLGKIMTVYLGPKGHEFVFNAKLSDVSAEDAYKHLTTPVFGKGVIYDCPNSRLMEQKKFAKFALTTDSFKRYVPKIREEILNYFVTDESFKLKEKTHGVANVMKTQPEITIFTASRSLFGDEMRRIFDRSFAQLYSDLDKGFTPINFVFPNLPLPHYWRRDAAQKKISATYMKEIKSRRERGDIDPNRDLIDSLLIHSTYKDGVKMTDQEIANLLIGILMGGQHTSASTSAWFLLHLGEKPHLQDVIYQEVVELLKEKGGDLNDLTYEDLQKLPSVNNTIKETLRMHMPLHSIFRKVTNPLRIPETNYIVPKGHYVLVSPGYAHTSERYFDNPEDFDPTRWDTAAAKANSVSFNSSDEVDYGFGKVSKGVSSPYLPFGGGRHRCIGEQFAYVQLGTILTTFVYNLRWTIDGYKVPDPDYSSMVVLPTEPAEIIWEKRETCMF
Description: (§5) The reconstituted CYP51 assay previously described contained 1 μM CaCyp51, 2 μM Homo sapiens cytochrome P450 reductase and 50 μM lanosterol in a final volume of 500 μL. After the addition of azole in DMSO (2.5 μL), reactions were incubated at 37 °C for 10 min prior to initiation by the addition of 100 μL 20 mM β-NADPH-Na4. Sterol substrates and products were extracted with ethyl acetate, derivatized with N,O-bis(trimethylsilyl)-trifluoroacetamide (BSTFA)–trimethylchlorosilane (TMCS) (99:1) in the presence of anhydrous pyridine, and analyzed by GC/MS as described previously. IC50 determinations were performed in duplicate. Nonlinear regression of inhibitor concentration vs normalized response was calculated by GraphPad Prism 10.4.0 for Windows (GraphPad Software, Boston, Massachusetts, USA, www.graphpad.com).

CaCYP51 Y132F = CaCYP51 Y132F (Candida albicans, UniProt P10613, Y132F); test: Reconstituted CYP51 activity assay, Y132F; type: biochemical, C. albicans; settings: 1 μM CaCyp51, 50 μM lanosterol; duplicate, mean ± SD
Chain of CaCYP51 Y132F (P10613 whole entry Y132F): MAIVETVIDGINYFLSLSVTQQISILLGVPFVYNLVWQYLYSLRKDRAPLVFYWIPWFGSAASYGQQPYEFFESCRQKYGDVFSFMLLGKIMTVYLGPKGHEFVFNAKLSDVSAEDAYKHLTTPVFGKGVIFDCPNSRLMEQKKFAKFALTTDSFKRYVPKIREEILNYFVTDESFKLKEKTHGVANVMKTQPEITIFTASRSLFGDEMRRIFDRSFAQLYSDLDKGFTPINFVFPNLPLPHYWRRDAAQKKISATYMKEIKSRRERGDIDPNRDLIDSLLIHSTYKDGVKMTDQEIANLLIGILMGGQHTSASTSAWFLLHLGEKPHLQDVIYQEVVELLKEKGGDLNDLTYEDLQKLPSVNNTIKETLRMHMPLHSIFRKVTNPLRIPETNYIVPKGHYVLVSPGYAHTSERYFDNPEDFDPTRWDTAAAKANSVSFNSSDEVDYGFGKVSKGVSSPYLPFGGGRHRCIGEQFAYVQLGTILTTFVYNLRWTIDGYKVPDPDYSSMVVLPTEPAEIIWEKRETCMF
Description: as §5

CYP1A2 = CYP1A2 (Homo sapiens, UniProt P05177); test: CYP IC50 profile, CYP1A2; type: biochemical; settings: human liver drug metabolizing enzyme; read-out: CYP IC50 1A2
Chain of CYP1A2 (P05177 whole entry): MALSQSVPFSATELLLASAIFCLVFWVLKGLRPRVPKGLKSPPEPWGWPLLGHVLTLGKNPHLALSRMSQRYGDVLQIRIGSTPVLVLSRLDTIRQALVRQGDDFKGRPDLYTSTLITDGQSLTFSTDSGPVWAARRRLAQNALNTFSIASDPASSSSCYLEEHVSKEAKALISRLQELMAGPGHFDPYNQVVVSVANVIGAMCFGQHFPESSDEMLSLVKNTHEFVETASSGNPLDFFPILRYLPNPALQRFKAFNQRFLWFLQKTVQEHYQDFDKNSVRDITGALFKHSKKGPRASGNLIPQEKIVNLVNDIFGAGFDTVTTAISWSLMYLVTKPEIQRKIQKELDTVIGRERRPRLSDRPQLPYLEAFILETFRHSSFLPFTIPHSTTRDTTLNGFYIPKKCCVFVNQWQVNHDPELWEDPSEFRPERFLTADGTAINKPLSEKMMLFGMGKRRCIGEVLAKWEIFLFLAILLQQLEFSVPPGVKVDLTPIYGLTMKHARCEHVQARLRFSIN

CYP2C9 = CYP2C9 (Homo sapiens, UniProt P11712); test: CYP IC50 profile, CYP2C9; type: biochemical; settings: human liver drug metabolizing enzyme; read-out: CYP IC50 2C9
Chain of CYP2C9 (P11712 whole entry): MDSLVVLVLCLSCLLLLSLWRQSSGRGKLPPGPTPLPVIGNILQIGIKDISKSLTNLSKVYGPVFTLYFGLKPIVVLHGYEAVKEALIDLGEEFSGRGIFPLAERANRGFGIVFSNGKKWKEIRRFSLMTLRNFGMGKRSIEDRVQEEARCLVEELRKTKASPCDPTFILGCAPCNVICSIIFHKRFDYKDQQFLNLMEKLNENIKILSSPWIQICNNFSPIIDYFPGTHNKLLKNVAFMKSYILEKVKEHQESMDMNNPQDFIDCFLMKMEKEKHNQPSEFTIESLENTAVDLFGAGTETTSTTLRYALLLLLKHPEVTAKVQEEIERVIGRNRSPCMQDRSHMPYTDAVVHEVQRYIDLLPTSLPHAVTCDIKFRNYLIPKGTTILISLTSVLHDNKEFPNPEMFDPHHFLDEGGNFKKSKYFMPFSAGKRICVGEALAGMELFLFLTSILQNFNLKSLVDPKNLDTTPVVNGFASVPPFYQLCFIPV

CYP2C19 = CYP2C19 (Homo sapiens, UniProt P33261); test: CYP IC50 profile, CYP2C19; type: biochemical; settings: human liver drug metabolizing enzyme; read-out: CYP IC50 2C19
Chain of CYP2C19 (P33261 whole entry): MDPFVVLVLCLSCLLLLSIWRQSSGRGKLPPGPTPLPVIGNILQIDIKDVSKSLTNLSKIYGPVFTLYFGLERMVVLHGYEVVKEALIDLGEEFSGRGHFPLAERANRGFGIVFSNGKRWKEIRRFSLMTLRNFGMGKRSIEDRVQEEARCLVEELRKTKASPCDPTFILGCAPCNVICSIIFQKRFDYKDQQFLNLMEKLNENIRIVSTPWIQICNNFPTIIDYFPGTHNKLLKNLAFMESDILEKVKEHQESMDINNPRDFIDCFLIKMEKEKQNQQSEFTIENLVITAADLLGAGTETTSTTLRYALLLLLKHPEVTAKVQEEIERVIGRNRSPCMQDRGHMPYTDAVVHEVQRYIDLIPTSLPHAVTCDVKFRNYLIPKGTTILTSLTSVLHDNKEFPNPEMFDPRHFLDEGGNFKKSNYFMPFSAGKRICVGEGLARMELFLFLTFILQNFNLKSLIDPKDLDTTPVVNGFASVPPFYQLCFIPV

CYP2D6 = CYP2D6 (Homo sapiens, UniProt P10635); test: biochemical; settings: human liver drug metabolizing enzyme; read-out: CYP IC50 2D6
Chain of CYP2D6 (P10635 whole entry): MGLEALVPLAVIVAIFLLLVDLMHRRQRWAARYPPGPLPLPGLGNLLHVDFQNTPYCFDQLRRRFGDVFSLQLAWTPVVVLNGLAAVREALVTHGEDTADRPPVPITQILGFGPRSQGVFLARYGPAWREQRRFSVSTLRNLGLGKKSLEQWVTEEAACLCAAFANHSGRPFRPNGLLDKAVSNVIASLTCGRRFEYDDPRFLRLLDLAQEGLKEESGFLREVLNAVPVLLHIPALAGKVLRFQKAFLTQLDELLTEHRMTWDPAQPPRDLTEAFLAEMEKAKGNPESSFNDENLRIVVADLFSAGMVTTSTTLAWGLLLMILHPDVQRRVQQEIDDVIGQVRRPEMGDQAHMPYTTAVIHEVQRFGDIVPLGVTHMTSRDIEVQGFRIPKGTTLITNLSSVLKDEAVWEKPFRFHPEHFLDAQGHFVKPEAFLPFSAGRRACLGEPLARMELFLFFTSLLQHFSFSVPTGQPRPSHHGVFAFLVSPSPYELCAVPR

[5] = Saccharomyces cerevisiae, 48 h, pH 6.8

With `O=C(NCC(O)(Cn1cncn1)c1ccc(F)cc1F)c1ccc(-c2ccc(OC(F)(F)F)cc2)cc1` (stereo not drawn) [Compound 22, N-(2-(2,4-Difluorophenyl)-2-hydroxy-3-(1H-1,2,4-triazol-1-yl)propyl)-4’-(trifluoromethoxy)-[1,1’-biphenyl]-4-carboxamide] the MIC80 (Y2301 OE ScCYP51 Y140F; 48 h, pH 6.8) was 0.093 ± 0.046 µM, the MIC (Y2301 OE ScCYP51 Y140F; read-out: MIC (nM) S. cerevisiae Y2301) was 93 ± 46 nM and the MIC80 (Y2513 OE ScCYP51 Y140H; 48 h, pH 6.8) was 0.078 ± 0.056 µM. For the same compound, the MIC (Y2513 OE ScCYP51 Y140H; read-out: MIC (nM) S. cerevisiae Y2513) was 78 ± 56 nM, the MIC80 (Y2459 OE CaCYP51 CaCpr; [5]) was 0.054 ± 0.022 µM and the MIC (Y2459 OE CaCYP51 CaCpr; read-out: MIC (nM) C. albicans model Y2459) was 54 ± 22 nM. For the same compound, the MIC80 (Y525 OE CaMDR1a; [5]) was 0.451 µM, the MIC (Y525 OE CaMDR1a; read-out: MIC (nM) C. albicans model Y525) was 451 nM and the MIC (Y570 OE CaCDR1B; Candida albicans, read-out: MIC (nM) C. albicans model Y570) was 5800 nM. The MIC80 (Y570 OE CaCDR1B; [5]) was 5.8 µM, the MIC80 (Y1) was 0.067 µM and the MIC80 (Y611 FHB3) was 1.65 µM. The MIC80 (Y2721 OE CpCYP51; Saccharomyces cerevisiae) was 0.099 µM, the MIC (Y2721 OE CpCYP51; read-out: MIC (nM) C. parapsilosis model Y2721) was 99 nM and the MIC80 (Y433 OE CgCDR1) was 5.85 µM. It also gave an MIC (Y2767 OE CauCYP51; Candidozyma auris, read-out: MIC (nM) C. auris model Y2767) of 110 ± 10 nM, an MIC80 (Y2767 OE CauCYP51; Saccharomyces cerevisiae) of 0.11 ± 0.01 µM and an MIC (Y2768 OE CauCYP51 Y132F; Candidozyma auris, read-out: MIC (nM) C. auris model Y2768) of 241 ± 38 nM. The MIC80 (Y2768 OE CauCYP51 Y132F; Saccharomyces cerevisiae) was 0.241 ± 0.038 µM, the MIC80 (2711 CnCYP51 OE CnCPR; Saccharomyces cerevisiae) was 0.018 µM and the MIC (2711 CnCYP51 OE CnCPR; read-out: MIC (nM) C. neoformans model Y2711) was 18 nM. The MIC80 (Y2651 OE CYP51 F5 RaCPR) was 1.36 ± 0.907 µM, the MIC ([1]; Aspergillus fumigatus, read-out: MIC (nM) A. fumigatus model Y2747) was 72 ± 29 nM and the MIC80 ([1]; Saccharomyces cerevisiae) was 0.072 ± 0.029 µM. The “zone of growth inhibition (inhibitory activity in words)” value (shortened to “zone of growth inhibition”) [2] was “high potency”, the “zone of growth inhibition” value [3] was “unaffected inhibition zone size” and the “zone of growth inhibition” value [4] was “conferred resistance”. The IC50 (wild-type CaCYP51) was 0.669 µM, the IC50 (CaCYP51 Y132F) was 1.24 ± 0.0379 µM and the IC50 (CYP1A2) was 9.33 ± 1.39 µM. For the same compound, the IC50 (CYP2C9) was > 25 µM, the IC50 (CYP2C19) was 14.5 ± 2.23 µM and the IC50 (CYP2D6) was > 25 µM.
